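How tested: cells in 96-well plates exposed to compound for 48 hours at five concentrations. At the TGI there is no net growth.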
Columns and labels:
Assay in all cases: growth of human tumour cells (NCI), 48 h
ACHN renal = tested on: ACHN renal
HCT-116 colon = tested on: HCT-116 colon
HCT-15 colon = tested on: HCT-15 colon
HL-60(TB) leukemia = tested on: HL-60(TB) leukemia
HOP-92 NSCLC = tested on: HOP-92 NSCLC
HT29 colon = tested on: HT29 colon
NCI-H226 lung = tested on: NCI-H226 lung
SNB-19 CNS = tested on: SNB-19 CNS
TK-10 renal = tested on: TK-10 renal
U251 CNS = tested on: U251 CNS

Row | SMILES | TGI (ACHN renal) [µM] | TGI (HCT-116 colon) [µM] | TGI (HCT-15 colon) [µM] | TGI (HL-60(TB) leukemia) [µM] | TGI (HOP-92 NSCLC) [µM] | TGI (HT29 colon) [µM] | TGI (NCI-H226 lung) [µM] | TGI (SNB-19 CNS) [µM] | TGI (TK-10 renal) [µM] | TGI (U251 CNS) [µM]
1 | CC(=O)OCC1OC(OCCCOP(=O)(OCCC#N)OCC2OC(n3cnc4c(N)ncnc43)C(OC(=O)c3ccccc3)C2OC(=O)c2ccccc2)C(OC(C)=O)C(OC(C)=O)C1OC(C)=O (stereo not given) | > 100 | > 100 | > 100 | > 100 | > 100 | > 100 | > 100 | > 100 | > 100 | > 100
2 | CC(=O)N[C@@H](Cc1ccc(O)cn1)C(=O)NCc1ccc(Cl)cc1 | > 100 | > 100 | > 100 | > 100 | > 100 | > 100 | > 100 | > 100 | > 100 | > 100
3 | Cc1nn2c(=O)c([N+](=O)[O-])c(/C=C/c3ccc(F)cc3)nc2s1 | 20.6 | 15.1 | 16.5 | 18.1 | 26.3 | 16.5 | 19 | 23.2 | 20.7 | 14.6
4 | O=c1cc(NNc2cccc3ccccc23)[nH]c(=O)[nH]1 | 30.3 | 31.2 | 24.8 | 7.99 | 31.7 | 31.9 | 27.9 | 29 | 33.8 | 28.3
5 | COc1cc(/C=C(\C)[N+](=O)[O-])cc(OC)c1 | 30.3 | 31.2 | 29.9 | 4.33 | 28.2 | 38.5 | > 94.7 | > 56.2 | 26.1 | 32.1
6 | NCCCN(CCCCN(CCCN)CCCc1ccccc1)CCCc1ccccc1 | 9.24 | 3.02 | 4.24 | 7.44 | 24.1 | 4.32 | 38.8 | 6.62 | 25.9 | 4.19
7 | CCOC(=O)C(O)(CC1=NC(C(=O)OC)(C(=O)OC)C(c2cccc(C=O)c2)O1)C(=O)OCC (stereo not given) | > 100 | > 100 | > 100 | > 100 | > 100 | > 100 | > 100 | > 100 | > 100 | > 100
8 | Cc1ccc(C2=CC(=O)/C(=C\C(=O)c3ccc(Br)cc3)O2)c(C)c1 | 12.3 | 19.8 | 36.9 | > 100 | 19.4 | 17.6 | 30.8 | > 49.1 | 15.9 | 43.9
9 | Cc1nc2ccc(NCCN(C)C)c3c(=O)c4ccccc4n1c23 | 22.3 | 13.8 | 6.22 | > 47.5 | 14.2 | 10.8 | 8.69 | 47.8 | 38.5 | 16.2
10 | COC(=O)CN1CCN(c2cccc3c2CCCC3)CC1 | > 100 | > 100 | > 100 | > 100 | 15.4 | 65.8 | 94.6 | > 100 | > 100 | > 100
11 | CC(=O)c1csc2c1C(=O)c1ccccc1C2=O | 4.57 | 7.85 | 10.3 | 19.5 | 89.1 | 4.5 | 3.42 | 5.06 | 4.99 | 13.9
